Data published in US7453006B2, “Inositol derivatives for increasing chloride secretion and inhibiting inflammation” (Inologic, Inc., priority 2000, dated 2008).
“Also recorded” adds a separate entry of the source.

Tests used:
[1] = system: CF Human Nasal Epithelial (CFHNE) cells; assay: Cystic Fibrosis Human Nasal Epithelial Cell Assay (Isc, Ussing chambers); format: cell-based
Description: CF Human Nasal Epithelial (CFHNE) Cell Isolation and Proliferation
Nasal Polyps were surgically obtained from a CF patient at Children's Hospital (Seattle, Wash.), transported on ice in a sterile container containing a 1:1 mixture of Dulbecco's modification of minimum essential medium Eagle and Ham's F-12 nutrient medium (DMEM/F-12) (Irvine Scientific, Santa Ana, Calif.) supplemented with 100 U/mL penicillin, 0.1 mg/mL streptomycin, 10 mM HEPES, and 2 mM L-glutamine. The tissue samples were aseptically removed from the transport medium and washed (repeated 5 times) by suspending in 40 mL of Joklik's modification of minimum essential medium Eagle (JMEM) at 4° C., and centrifuging at 500 rpm. The supernatant was aspirated and discarded. The tissue was then transferred to JMEM containing 200 U/mL penicillin, 0.2 mg/mL streptomycin, 0.1 mg/mL gentamycin sulfate (Clonetics, San Diego, Calif.), and 0.1 μg/mL amphotericin-B (Clonetics), and 0.1% Protease, washed an additional two times, suspended in […] in a 10 cm tissue culture dish, and incubated at 4° C. for 24 hours. The tissue samples were then gently triturated, the connective tissue aseptically removed, and the remaining cell suspension centrifuged at 1000 rpm. The supernatant was aspirated and the pellet was resuspended in 10 mL proliferation media, consisting of Keratinocyte-Serum Free Medium (KSFM) (Gibco-BRL, Grand Island, N.Y.) containing 5 ng/ml EGF (Gibco), 50 μg/mL BPE (Gibco), 5 μg/mL insulin, 5 μg/mL transferrin, 5 μg/ml sodium selenite, 10 nM 3,3′,5-triiodo-L-thyronine, 200 nM hydrocortisone, 100 U/mL penicillin, 0.1 mg/mL streptomycin, and 2 mM L-glutamine. The cell suspension was transferred to 2.10 cm tissue culture dishes coated with 3 μg/cm^2 rat-tail collagen (Type I) (Becton-Dickinson, Bedford, Mass.), incubated at 37° C. in an humidified atmosphere of 5% CO2 and 95% air. The cells were allowed to grow for 6 days (˜70% confluence) with the media being replaced with fresh media every other day. The cells were then trypsinized using 0.025% trypsin-EDTA for 5 min. The cell suspension was collected, the trypsin deactivated with 10% Fetal Bovine Serum, and centrifuged at 1000 rpm for 5 min. The cells were then counted using an hemocytometer with a yield of 3×10^6 cells per dish. The supernatant was aspirated and the cells were resuspended in KSFM and plated at a density of 10^4 cells/cm^2.
CFHNE Cell Ussing Chamber Preparation
The CFHNE cells were prepared for Ussing Chamber studies using Snapwell permeable supports (0.4 μm pore size) (Corning Costar, Cambridge, Mass.) coated with 3 μg/cm^2 rat-tail collagen (type 1). Cells were plated at 9×10^3 cells/cm^2 in KSFM. After 2 days, an air-liquid interface (ALI) was initiated in DMEM/F-12 containing: 2% Fetal Clone III (Hyclone, Logan, Utah), 2.5 μg/mL insulin, 2.5 μg/mL transferrin, 2.5 μg/mL sodium selenite, 20 nM hydrocortisone, 1.5 μM epinephrine, 50 μg/mL BPE, 1 nM 3,3′,5-triiodo-L-thyronine, 3.3 nM All-trans retinoic acid, 250 nM ethanolamine, 250 nM O-phosporylethanolamine, 100 U/mL penicillin, 0.1 mg/ml streptomycin, and 2 mM L-glutamine. The CFHNE monolayers reached maximal resistance (˜200 Ω/cm^2) 5-7 days after initiation of ALI. All media/reagents, unless otherwise specified, were supplied by Sigma Chemical Co., St. Louis, Mo.

[2] = system: arachidonic acid-induced inflammation in mouse ears; assay: arachidonic acid-induced inflammation in mouse ears; format: in vivo; conditions: for Ear Thickness: 20 nanomoles/ear topical 30 min before arachidonic acid, measured 60 min after arachidonic acid, control 56.5 ± 1.57
Description: Arachidonic Acid (Nu-Chek, Elysian, Minn. 56028); Indomethacin (stock=12.5 mg/mL acetone). Prednisolone (Sigma Chem, P6004) 20 mM dissolved in acetone; Animals: Female Balb/c mice (B&K laboratories) and Swiss-Webster hybrid (B& K Laboratory, Kent, Wash.)
The right ear of each mouse was used for the test compound. Unless otherwise indicated each compound was adjusted to 20 mM by dilution into DMSO or DMSO/5% Pluronic F127 as indicated and 1 or 2 microliters were applied to the test ear. Thirty minutes after each compound was applied, 4 mg arachidonic acid was applied (4 μL/ear; 2 μL/side) to both ears of each mouse. Measurements of edema were taken 60 min after the application of arachidonic acid with microcalipers (Oditest, Scientific Supply and Equipment) unless otherwise indicated. The results are shown in FIG. 15 as millimeters×10^−2 measured at the thickest point of each ear. Control measurements were performed on ears that were only treated with arachidonic acid.
Response to prednisolone (20 μL of 20 mM/ear; 10 μl/side) added 3 hrs prior 20′ to arachidonic acid or indomethacin (5 μg/ear) added 30 min prior to test compounds was determined. The results are shown in Table A, where the anti-inflammatory/inflammatory effects of 20 nanomoles/ear of the indicated compounds were tested as described in Methods. Each plus represents a change from control (arachidonic acid alone) of 2.5 mm×10^−2. Effects were compared with those of Indomethacin (400 nmols/ear).
Acute inflammation: Membrane permeant inositol polyphosphate analogs were administered topically and tested for inhibition of inflammatory symptoms induced by arachidonic acid on the ear of Swiss Webster mice.

T84 cells = assay: Colonic Epithelial Cell Assay (Isc across T84 monolayers, Ussing chambers); format: cell-based, human; conditions: for Isc response to carbachol / Isc response to thapsigargin following carbachol: 400 μM, 30 min preincubation, T84
Description: Cl^− secretion in colonic epithelial cells was measured as short circuit current (Isc) across T84 monolayers grown to confluence on Snap-wells (Costar) and mounted in Ussing chambers equipped with voltage clamps (Physiologic Instruments, San Diego). Data was acquired and analyzed using AAcquire and Analyze@ software (Physiologic Instruments). T84 cells (passages 18-48) were maintained as described previously in McRoberts, J. A. et al., “Cyclic AMP and Ca^2+-activated K^+ transport pathway in the apical membrane of a human colonic epithelial cell line,” J. Biol. Chem. 260:14163-14172 (1985). After […] of incubation on Snap-wells, monolayers had formed tight junctions and were preincubated with […] Bt2D-myo-Ins(3,4,5,6)P4/AM for 30-min. prior to mounting. An extracellular concentration of 200 uM corresponds to an intracellular concentration of 4 uM (Vajanaphnich, et al., “Long-term uncoupling of chloride secretion from intracellular calcium levels by Ins(3,4,5,6)P4,” Nature 371:711-714 (1994)). […]

[3] = macroscopic negative effects / side effects after ip and iv injection; format: in vivo, mouse; conditions: several weeks after treatment
[4] = extracellular concentration of 200 uM; cited from earlier work
[5] = preincubation with 200 μM, CFHNE monolayers

CCCOC1C(OP(=O)(OCOC(C)=O)OCOC(C)=O)C(OP(=O)(OCOC(C)=O)OCOC(C)=O)C(OP(=O)(OCOC(C)=O)OCOC(C)=O)C(OP(=O)(OCOC(C)=O)OCOC(C)=O)C1(CCC)OC(=O)CCC (racemic) [Compound A, rac-2-O-butyryl-2-C-propyl-1-O-propyl-myo-inositol 3,4,5,6-tetrakisphosphate-octakis(acetoxymethyl) ester]
Isc response to subsequent stimulation with ATP ([1]; 95 μM, CFHNE): appeared to prolong the response to subsequent stimulation with ATP; also recorded: prolonged increase in Isc following ATP addition | Isc, direct effect ([1]; 95 μM, CFHNE): little direct effect | Isc, direct effect ([1]; 200 μM, added basolaterally, CFHNE (passage 3)): prolonged increase in Isc comparable in amplitude to that stimulated with ATP | Ear Thickness [2]: 52.5 ± 5.5 mm × 10^−2 | Isc response to carbachol (T84 cells): did not affect | Isc response to thapsigargin following carbachol (T84 cells): partially reversed the inhibition of thapsigargin induced chloride secretion; also recorded: partially restores the Isc response to thapsigargin following carbachol

D-1-O-octyl-2-O-butyryl-myo-inositol 1,4,5,6-tetrakisphosphate-octakis-(propionoxymethyl)ester [INO-E3]
effectiveness by route of application ([2]; topically, intraperitoneally and orally): effective when applied topically, intraperitoneally and orally | macroscopic negative effects ([3]; ip injections up to 50 μg/animal): No macroscopic negative effects | macroscopic negative effects ([3]; iv injections of 20 μg/animal): No macroscopic negative effects

CCCC12OC(C)(C)OC1C(OP(=O)(OCOC(C)=O)OCOC(C)=O)C(OP(=O)(OCOC(C)=O)OCOC(C)=O)C(OP(=O)(OCOC(C)=O)OCOC(C)=O)C2OP(=O)(OCOC(C)=O)OCOC(C)=O (racemic) [Compound B, rac-1,2-O-isopropylidene-2-C-propyl-myo-inositol 3,4,5,6-tetrakisphosphate-octakis(acetoxymethyl) ester]
negative component of the ATP effect on Isc ([1]; FIG. 11 legend: preincubation at 400 μM, CFHNE, average of duplicates): reverse the negative component of the ATP effect on Isc | negative phase of Isc following ATP [1, 5]: totally reversed the negative phase, instead causing a long term increase in Isc | transient increase in Isc following ATP [1, 5]: inhibited | Ear Thickness [2]: 56.1 ± 2.1 mm × 10^−2 | Isc response to carbachol (T84 cells): prolongs; also recorded: prolonged increase in Isc response | Isc response to thapsigargin following carbachol (T84 cells): overcomes the inhibitory effect of carbachol pretreatment; also recorded: prolonged increase in Isc response | Isc, acute effect (T84 cells; applied acutely to the apical surface of T84 monolayers, one monolayer): triggers an increase in Isc; also recorded: large and prolonged increase in Isc

CCCC(=O)OC1C(OC(=O)CCC)C(OP(=O)(OCOC(C)=O)OCOC(C)=O)C(OP(=O)(OCOC(C)=O)OCOC(C)=O)C(OP(=O)(OCOC(C)=O)OCOC(C)=O)C1OP(=O)(OCOC(C)=O)OCOC(C)=O (centres unmarked) [Bt2D-myo-Ins(3,4,5,6)P4/AM]
intracellular concentration [4]: 4 µM
